Data taken from patent US20110288154A1, “RNA Interference Mediated Inhibition of Epithelial Sodium Channel (ENaC) Gene Expression Using Short Interfering Nucleic Acid (siNA)” (MERCK & CO., INC., priority 2008, published 2011).

Columns and labels:
[1] = test system: human ENaCα mRNA; assay: ENaCα mRNA knockdown and EC50 in human normal bronchial epithelial cells (NHBEs); type: cell-based; conditions: 48 hrs post transfection, n = 3 donors; for EC50: nine point dose range 0.01-100 nM
Protocol: Human Bronchial Epithelial cells (NHBE cells) obtained from Lonza (Cat. No. CC-2540) were grown at 37 deg in the presence of 5% CO2 and cultured in BEBM basal medium (Lonza, Cat. No. CC-3171) on Biocoat Collagenl coated flasks (Becton Dickinson).
mRNA Knockdown and EC50 in NHBEs: Cells were plated in collagen 1 coated plates and cultured in appropriate culture media. The cells were cultured for 24 hours after plating at 37 deg in the presence of 5% CO2. siNAs were diluted in OptiMEM 1 to 1 uM and the delivery lipid GSK212357A to 25 ug/ml. For formulation of the siNAs equal volumes of the diluted siNA and delivery lipid were combined and incubated for 20 minutes at room temperature. Cells were meanwhile trypsinised and resuspended in antibiotic free BEBM media at 150,000 cells/ml. 20 ul of the formulated siNA and 80 ul of BEBM media was added per well of a 96 well plate (6 replicates/data point/siRNA concentration) so as to give a nine point dose range of the siRNAs (100 nM, 30 nM, 10 nM, 3 nM, 1 nM, 0.3 nM, 0.1 nM, 0.03 nM, 0.01 nM). The time of incubation with the GSK212357A-siNA complexes were 48 hours with one change of media at 24 hours.
RNA Isolation 96 well Plate: Total RNA was isolated from the cells in the 96-well plate format using the Automated SV96 Total RNA Isolation System (Promega) according to the manufacturer's instructions. The Biomek 2000 Laboratory Automation Workstation (Beckman Coulter) was used to apply the transfected cell lysates to a silica membrane. RNase-Free DNase I was then applied directly to the silica membrane to digest contaminating genomic DNA. The bound total RNA was further purified from contaminating salts, proteins and cellular impurities by simple washing steps. Finally, total RNA was eluted from the membrane by the addition of Nuclease-Free Water.
(§1) Quantitative RT-PCR (TaqMan): A series of probes and primers were used for the detection of mRNA transcripts of ENaCα, OAS1, IL8 and GAPDH (as control/normalisation) in the human cell lines. The assays were performed on an ABI 7900HT instrument according to the manufacturer's instructions. Primer Probe sets used GAPDH Forward 5′-[…]-3 (SEQ ID NO: 128), ‘Reverse 5’-GGGCCATCCACAGTCTTCT-3′ (SEQ ID NO: 129), Probe 5′ d FAM-[…]-TAMRA 3′ (SEQ ID NO: 130), ENaCa Forward 5′-[…]-3′ (SEQ ID NO: 131), Reverse 5′-[…]-3′ (SEQ ID NO: 132), Probe 5′ d FAM-[…]-TAMRA 3′ (SEQ ID NO: 133), OAS1 Forward 5′-[…]-3′ (SEQ ID NO: 134), Reverse 5′-[…]-3′ (SEQ ID NO: 135), Probe 5′ d FAM-[…]-TAMRA 3′ (SEQ ID NO: 136), IL8 Forward 5′-CTGGCCGTGGCTCTCTTG-3′ (SEQ ID NO: 137), Reverse 5′-[…]-3′ (SEQ ID NO: 138), Probe 5′ d FAM-[…]-TAMRA 3′ (SEQ ID NO: 139).
TaqMan: Critical threshold values (Ct) were converted to copy numbers corresponding to the particular gene analysed in each well of the 384 well plate. Six identical wells were prepared in each plate for a given treatment. […] Determination of the percentage coefficient of variation (CV) (% C.V.=[standard deviation/average]*100) allowed the omitting of wells whose value was an outlier (so that % C.V.<25). Relative abundance (aka relative expression) of a gene was determined by dividing the mean copy number of that gene with its GAPDH counterpart in that particular sample.
EC50 values were calculated from the data using sigma plot. All calculations of the efficacy and potency of the siNAs were done relative to the non-targeting control siNA.

[2] = test system: ENaC; assay: FLIPR assay of sodium transport in recombinant HEK cells over expressing ENaC; type: cell-based, human; conditions: FLIPR, n = 6, mean of 3 independent experiments
Protocol: (§2) Recombinant HEK293 cell line (expressing ENaC beta & gamma) SCNN1B (P618AY620L)+SCNN1G (P624stop) #24. were grown at 37 deg in the presence of CO2 and were cultured in M1 medium M1+0.5 mg/ml geneticin and 0.2 mg/ml hygromycin.
(§3) Functional Effects on ENaC via FLIPR in Cells Over Expressing ENaCa: A reverse transfection methodology was used to transfect the HEK recombinant cell line. 5 ul of siRNA (diluted in Optimem to the appropriate concentration) was mixed with 5 ul of the Gemini lipid transfection reagent diluted in Optimem in 384 well non-coated FLIPR plate. Plates were incubated at room temperature for 20 minutes to allow complex formation. Cells were harvested, spun down, diluted to 3×10^5/ml and plated out at 40 ul/well (12K/well) in 384 well plate format containing the transfection complex. The plates were incubated overnight for 20 hours. The cells were then transduced with BacMam virus expressing ENaC alpha (BacMam viruses expressing SCNN1A, GRITS 29703, titre 0.356×10^8/ml). 30 ul of virus was added (1.7%) 20K/well, MOI was approximately 1. Cells were incubated for 24 hours. On day of the FLIPR assay, media was aspirated, leaving 10 ul volume. 20 ul of dye per well was loaded (FMP2 Blue dye, R8181, MDS. For each pot, 133 ml Tyrodes buffer was diluted to make 1× stock prior to assay). The plate was incubated for 0.5 hours at room temperature and 10 ul of the compound added on-line prior to FLIPR read (FLIPR settings: protocol Na MP.fcf, with Exposure length 0.4 sec and Filter #2). Compound plate: 1 ul volume, column 1, 2 and 3 are 16, 4 and 0 uM amiloride final (1/200 dilution) (IC80, IC50 and ctrl).

[3] = test system: ENaC-alpha mRNA; assay: ENaC-alpha mRNA knockdown in recombinant HEK cells of the FLIPR assay; type: cell-based, human; conditions: n = 6, mean of 3 independent experiments
Protocol: as §2, §3
RNA isolation 384 well Plate: Extract mRNA using Qiagen Turbo Capture RNA preparation kit, following manufacturer's instructions.
as §1

[4] = final siNA concentration 100 nM

“B GcuGuGccuAcAucuucuA TTB / UAGAAGAuGuAGGcAcAGcUU (sense GCUGUGCCUACAUCUUCUATT; antisense UAGAAGAUGUAGGCACAGCUU; siRNA; B caps on sense ends, letter-case modifications not given here, further chemistry not given here) [Site 1388]” was tested, and the “Maximum mRNA knockdown NHBEs” value [1] was 79% and the EC50 [1] was 4.2 nM.
In the case of “B GuGuGGcuGuGccuAcAuc TTB / GAUGuAGGcAcAGccAcAcUU (sense GUGUGGCUGUGCCUACAUCTT; antisense GAUGUAGGCACAGCCACACUU; siRNA; B caps on sense ends, letter-case modifications not given here, further chemistry not given here) [Site 1383]”, the “Maximum mRNA knockdown NHBEs” value [1] is reported as 64% and the EC50 [1] is reported as 4.9 nM.
In the case of “B uGuGcAAccAGAAcAAAuc TTB / GAUuuGuucuGGuuGcAcAUU (chain 1 UGUGCAACCAGAACAAAUCTT; chain 2 GAUUUGUUCUGGUUGCACAUU; siRNA; B caps on sense ends, letter-case modifications not given here, further chemistry not given here) [Site 782]”, the “% Inhibition of Maximal Response (4 uM amiloride)” value (“% Inhibition … (4 uM amiloride)” for short) ([2]; final siNA concentration 10 nM) is reported as 37.1%, the “% Inhibition of Maximal Response (16 uM amiloride)” value (“% Inhibition … (16 uM amiloride)” for short) ([2]; final siNA concentration 10 nM) is reported as 40.8% and the “% Inhibition … (4 uM amiloride)” value ([2]; final siNA concentration 20 nM) is reported as 41.4%. For the same substance, the “% Inhibition … (16 uM amiloride)” value ([2]; final siNA concentration 20 nM) was 47.9%, the “% Inhibition … (4 uM amiloride)” value ([2]; final siNA concentration 50 nM) was 52.5% and the “% Inhibition … (16 uM amiloride)” value ([2]; final siNA concentration 50 nM) was 59.7%. The “% Inhibition … (4 uM amiloride)” value [2, 4] was 81.5%, the “% Inhibition … (16 uM amiloride)” value [2, 4] was 85.2% and the “% ENaC-alpha mRNA knockdown” value ([3]; final siNA concentration 10 nM) was 61.7%. The “% ENaC-alpha mRNA knockdown” value ([3]; final siNA concentration 20 nM) was 67.7%, the “% ENaC-alpha mRNA knockdown” value ([3]; final siNA concentration 50 nM) was 75.1% and the “% ENaC-alpha mRNA knockdown” value [3, 4] was 73.1%. For the same substance, the “Maximum mRNA knockdown NHBEs” value [1] was 79% and the EC50 [1] was 0.47 nM.
For “B uuAuGGAuGAuGGuGGcuu TTB / AAGccAccAucAuccAuAAUU (sense UUAUGGAUGAUGGUGGCUUTT; antisense AAGCCACCAUCAUCCAUAAUU; siRNA; B caps on sense ends, letter-case modifications not given here, further chemistry not given here) [Site 1181]”, the “% Inhibition … (4 uM amiloride)” value ([2]; final siNA concentration 10 nM) was 43.8%, the “% Inhibition … (16 uM amiloride)” value ([2]; final siNA concentration 10 nM) was 45.8% and the “% Inhibition … (4 uM amiloride)” value ([2]; final siNA concentration 20 nM) was 48.9%. For the same substance, the “% Inhibition … (16 uM amiloride)” value ([2]; final siNA concentration 20 nM) was 51.4%, the “% Inhibition … (4 uM amiloride)” value ([2]; final siNA concentration 50 nM) was 62.2% and the “% Inhibition … (16 uM amiloride)” value ([2]; final siNA concentration 50 nM) was 65.5%. The “% Inhibition … (4 uM amiloride)” value [2, 4] was 77.5%, the “% Inhibition … (16 uM amiloride)” value [2, 4] was 77.5% and the “% ENaC-alpha mRNA knockdown” value ([3]; final siNA concentration 10 nM) was 52.6%. The “% ENaC-alpha mRNA knockdown” value ([3]; final siNA concentration 20 nM) was 65.6%, the “% ENaC-alpha mRNA knockdown” value ([3]; final siNA concentration 50 nM) was 76.1% and the “% ENaC-alpha mRNA knockdown” value [3, 4] was 76.9%. The “Maximum mRNA knockdown NHBEs” value [1] was 78% and the EC50 [1] was 1.59 nM.
